{
  "source": "patent US7169591B1",
  "about": "“Preparation of enantio-specific epoxides” (priority 1999, dated 2007)",
  "key": {"[1]": {"tested_on": "Burkholderia cepacia G4 (T2MO)", "experiment": "Enantiomeric ratio of monoepoxides (chiral GC), strain G4", "assay_type": "cell-based", "description": "(§1) To determine the ratio of R and S isomers of the epoxides formed from the oxidation of the alkenes, samples were analyzed for the presence of the epoxides and alkenes by gas chromatography as described above. When the epoxide concentration neared its maximum, or when the 80–90% of the substrate was degraded, the enantiomeric ratio of epoxides produced was determined by injecting a sample of the headspace gas onto a GC equipped with a chiral separation column (RT-BDEXSE; Restek, Inc., Bellefonte, Pa.) and a flame ionization detector. The column was maintained at 50° C."}, "[2]": {"tested_on": "Pseudomonas pickettii PKO1 (T3MO)", "experiment": "Enantiomeric ratio of monoepoxides (chiral GC), strain PKO1", "assay_type": "cell-based", "settings": "KO1 (PKO1)", "description": "as §1"}, "[3]": {"tested_on": "Pseudomonas mendocina KR1 (T4MO)", "experiment": "Enantiomeric ratio of monoepoxides (chiral GC), strain KR1", "assay_type": "cell-based", "description": "as §1"}, "[4]": {"tested_on": "Burkholderia sp. strain ENVBF1", "experiment": "Enantiomeric ratio of monoepoxides (chiral GC), strain ENVBF1", "assay_type": "cell-based", "description": "as §1"}, "alkene monooxygenase": {"target": "T1, alkene monooxygenase (Xanthobacter versatilis, UniProt O87082)", "T1 sequence (O87082 1-497)": "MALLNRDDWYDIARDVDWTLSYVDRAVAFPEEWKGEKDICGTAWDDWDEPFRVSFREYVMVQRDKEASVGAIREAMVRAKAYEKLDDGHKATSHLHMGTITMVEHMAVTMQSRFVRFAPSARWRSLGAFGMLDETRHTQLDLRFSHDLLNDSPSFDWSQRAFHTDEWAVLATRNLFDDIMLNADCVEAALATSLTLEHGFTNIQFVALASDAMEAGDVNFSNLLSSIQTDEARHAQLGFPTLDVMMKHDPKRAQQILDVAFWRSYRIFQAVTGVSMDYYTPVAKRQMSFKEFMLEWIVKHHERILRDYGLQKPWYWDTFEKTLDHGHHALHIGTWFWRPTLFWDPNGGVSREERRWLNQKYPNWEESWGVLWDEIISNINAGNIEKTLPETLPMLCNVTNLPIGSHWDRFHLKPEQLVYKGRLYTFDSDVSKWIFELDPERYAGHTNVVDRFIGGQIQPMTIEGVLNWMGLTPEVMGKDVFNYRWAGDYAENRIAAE", "settings": "cited from earlier work"}, "[5]": {"tested_on": "Pseudomonas sp. strain ENVPC5", "experiment": "Enantiomeric ratio of monoepoxides (chiral GC), strain ENVPC5", "assay_type": "cell-based", "settings": "PC5", "description": "as §1"}, "[6]": {"tested_on": "Burkholderia sp. strain ENVBF1", "experiment": "Alkene degradation assay, whole cells of Burkholderia sp. strain ENVBF1 (T4MO)", "assay_type": "cell-based", "settings": "ENVBF1; following 30 minutes incubation", "from_the_text": "(§2) Pseudomonas mendocina KR1 (Yen et al., J. Bacteriol., 173:5315–5327 (1991)), the T4MO mutant of KR1 Pseudomonas mendocina ENVpmx1 (McClay et al., The 97th Annual Meeting of ASM, Abstract K36, page 348 (1997)), Pseudomonas pickettii PKO1 (Byrne et al., Gene, 154:65–70 (1995)), Burkholderia cepacia G4 (Shields et al., Appl. Environ. Microbiol., 55:1624–1629 (1989)), Burkholderia sp. strain ENVBF1 (McClay et al., Appl. Environ. Microbiol., 62:2716–2722 (1996)), and Pseudomonas sp. strain ENVPC5 (McClay et al., 1996, supra) were cultured overnight at 30° C. in shake flasks containing basal salts medium (BSM; 10) supplemented with 0.4% sodium glutamate. Toluene was included in the vapor phase when induction of the toluene oxygenases was desired. Prior to substrate degradation assays the cultures were harvested by centrifugation and resuspended in BSM to an optical density at 550 nm (OD550) of 2, unless otherwise indicated. A standard curve of optical density vs. protein concentration for each strain was used to calculate the amount of protein per ml of the resuspended cultures.\n(§3) To determine the range of alkenes that could be degraded by the toluene monooxygenase and the degradation kinetics of the toluene monooxygenases, 5-ml aliquots of the resuspended cultures were dispensed to 25-ml serum vials and crimp sealed with Teflon™ faced septa. Gaseous alkene substrates were added as pure compounds by using a gas-tight syringe, and other alkene substrates were added from stock solutions (20% in dimethylformamide). The amount of individual alkene substrates added were as follows: 1-butene, 2-butene, and 1,3-butadiene, 2.2 μM; epoxy butane, 1,3-butadiene monoxide, and epichlorohydrine, 8 μM; 1- and 2-pentene, 9 μM; hexene, 4 μM; octadiene, 4.5 μM; 2-chloropropene, 11 μM; and, 2,3-dichloropropene, 12 μM unless otherwise indicated. The serum vials were then placed horizontally on a rotary shaker operating at 100 rpm. During incubation the temperature was maintained between 20–22° C. for the Pseudomonads and at 37° C. for E. coli. The serum vials were periodically removed from the shaker and a 10–25 μl portion of the headspace gas was withdrawn through the septa and injected onto a gas chromatograph (GC) equipped with a 30 m Vocol column (Supelco Inc. Bellefonte, Pa.) maintained at 160° C., and a flame ionization detector. This allowed the monitoring of both the alkene compounds as well as the epoxide products. The same protocol was used to detect the formation of 1,2-butanediol and butadiene diepoxide, except that 1 μl of the culture media was injected onto the column rather than the headspace gas."}, "T4MO": {"tested_on": "T4MO", "experiment": "Induction of T4MO by alkenes and toluene (FIG. 14)", "assay_type": "cell-based", "settings": "at 120 minutes", "description": "The data points are the average of duplicate samples, with the range shown as error bars. The relative light units registered by the 2-pentene sample at 120 minutes was approximately 10^5."}, "[7]": {"tested_on": "Pseudomonas sp. strain ENVPC5", "experiment": "Alkene degradation assay, whole cells of Pseudomonas sp. strain ENVPC5 (T4MO)", "assay_type": "cell-based", "settings": "following 30 minutes incubation", "from_the_text": "as §2, §3"}, "[8]": {"tested_on": "Pseudomonas mendocina ENVpmx1", "experiment": "Alkene degradation assay, T4MO deficient strain Pseudomonas mendocina ENVpmx1", "assay_type": "cell-based", "from_the_text": "as §2, §3"}, "[9]": {"tested_on": "Pseudomonas mendocina KR1", "experiment": "Alkene degradation assay, whole cells of Pseudomonas mendocina KR1 (T4MO)", "assay_type": "cell-based", "from_the_text": "as §2, §3"}, "wild type organisms": {"tested_on": "wild type organisms", "experiment": "Alkene oxidation and epoxide detection (GC, PNBP), wild type organisms", "assay_type": "cell-based", "settings": "all the wild type strains", "description": "as §3\nThe only epoxides relevant to this study that were commercially available were 1,3-butadiene mono-, and diepoxide. These were used in GC analyses to determine retention times and to quantitate the conversion of 1,3-butadiene to the corresponding epoxides. To verify that the observed peaks were epoxides, a modification of the method of van Hylckama et al. (van Hylckama et al., Appl. Environ. Microbiol., 62:3304–3312 (1996)) was used, whereby epoxides were conjugated with PNBP to form intensely colored adducts of the epoxides. Serum vials were prepared as before, except that prior to sealing the vials, Durham tubes were placed inside the vials, with the opening of the Durham tube extending out of the liquid. The substrate was then added and the vials were incubated with moderate shaking at a 45° angle to prevent the culture liquid from entering the Durham tube. The transformation of the alkenes was monitored by GC analysis. […] The vials were then allowed to incubate for 8 hours before they were opened and the epoxide containing PNBP withdrawn. The total volume of PNBP solution was combined with an equal volume of acetone-triethylamine (50:50) and mixed rapidly. Epoxide/PNBP adducts were detected by spectra analysis (400–700 nm)."}, "[10]": {"tested_on": "E. coli (pRS202) expressing T4MO", "experiment": "Alkene degradation assay, E. coli (pRS202) expressing T4MO", "assay_type": "cell-based, Escherichia coli DH10B", "description": "Escherichia coli DH10B containing the plasmid pRS202 (Pikus et al., Biochemistry, 35:9106–9119 (1996); Pikus et al., Biochemistry, 36:9283–9289 (1997)) was prepared in a similar manner except it was grown at 37° C. in LB media, and was resuspended to an OD550 of 4 in LB media with 0.3–1 mM IPTG to induce expression of T4MO.\nas §3"}, "Burkholderia cepacia G4": {"tested_on": "Burkholderia cepacia G4", "experiment": "Alkene degradation assay, whole cells of Burkholderia cepacia G4 (T2MO)", "assay_type": "cell-based", "settings": "G4; following 30 minutes incubation", "from_the_text": "as §2, §3"}, "[11]": {"target": "soluble methane monooxygenase (MMO) (Methylosinus trichosporium, UniProt P27353)", "sequence (P27353 whole entry)": "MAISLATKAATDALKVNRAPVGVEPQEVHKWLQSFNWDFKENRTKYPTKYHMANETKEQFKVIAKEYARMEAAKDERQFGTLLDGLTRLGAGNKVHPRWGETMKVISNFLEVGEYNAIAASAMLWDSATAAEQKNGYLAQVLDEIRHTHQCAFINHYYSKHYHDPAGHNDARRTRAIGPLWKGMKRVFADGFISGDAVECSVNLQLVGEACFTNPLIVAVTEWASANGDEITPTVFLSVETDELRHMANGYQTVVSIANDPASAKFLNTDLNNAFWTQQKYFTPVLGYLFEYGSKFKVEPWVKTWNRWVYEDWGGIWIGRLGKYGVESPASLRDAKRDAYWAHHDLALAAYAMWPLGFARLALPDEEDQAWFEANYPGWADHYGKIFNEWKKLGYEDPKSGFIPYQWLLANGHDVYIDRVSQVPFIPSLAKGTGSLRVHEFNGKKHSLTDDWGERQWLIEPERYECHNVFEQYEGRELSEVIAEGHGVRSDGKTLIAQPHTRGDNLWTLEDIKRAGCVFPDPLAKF", "sequence (P27354 whole entry partner)": "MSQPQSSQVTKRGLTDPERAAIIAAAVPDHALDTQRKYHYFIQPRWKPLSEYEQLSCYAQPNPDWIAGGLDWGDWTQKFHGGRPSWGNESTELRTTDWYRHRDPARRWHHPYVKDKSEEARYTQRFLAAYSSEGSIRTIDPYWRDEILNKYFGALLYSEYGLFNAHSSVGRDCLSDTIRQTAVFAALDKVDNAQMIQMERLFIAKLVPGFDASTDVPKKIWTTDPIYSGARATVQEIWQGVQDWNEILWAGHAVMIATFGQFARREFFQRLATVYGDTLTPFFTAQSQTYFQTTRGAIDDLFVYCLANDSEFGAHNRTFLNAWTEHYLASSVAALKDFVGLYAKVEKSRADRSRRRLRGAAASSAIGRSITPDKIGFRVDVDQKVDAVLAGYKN", "sequence (P27355 whole entry partner)": "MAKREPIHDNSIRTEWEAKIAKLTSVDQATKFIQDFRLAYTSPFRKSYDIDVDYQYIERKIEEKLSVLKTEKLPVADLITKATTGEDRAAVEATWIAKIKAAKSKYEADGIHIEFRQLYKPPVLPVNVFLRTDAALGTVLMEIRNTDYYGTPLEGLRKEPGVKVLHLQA", "sequence (P27356 whole entry partner)": "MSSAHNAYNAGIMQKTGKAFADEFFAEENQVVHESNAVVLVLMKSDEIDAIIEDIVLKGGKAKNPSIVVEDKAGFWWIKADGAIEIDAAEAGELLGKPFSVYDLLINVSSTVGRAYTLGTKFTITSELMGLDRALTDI", "settings": "cited from earlier work"}, "styrene monooxygenase": {"target": "T2, styrene monooxygenase (Pseudomonas sp, UniProt O50214)", "T2 sequence (O50214 1-415)": "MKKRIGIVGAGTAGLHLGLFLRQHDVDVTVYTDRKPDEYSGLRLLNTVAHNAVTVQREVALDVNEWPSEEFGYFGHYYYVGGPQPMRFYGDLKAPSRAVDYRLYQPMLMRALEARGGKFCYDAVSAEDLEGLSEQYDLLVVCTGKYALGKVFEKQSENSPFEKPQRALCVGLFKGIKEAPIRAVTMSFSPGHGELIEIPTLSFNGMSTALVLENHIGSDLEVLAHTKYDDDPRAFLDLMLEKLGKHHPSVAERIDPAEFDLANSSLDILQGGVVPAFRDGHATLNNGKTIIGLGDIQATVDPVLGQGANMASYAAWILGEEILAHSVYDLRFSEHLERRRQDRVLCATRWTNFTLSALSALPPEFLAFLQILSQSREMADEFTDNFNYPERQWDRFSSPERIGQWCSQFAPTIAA", "settings": "cited from earlier work"}},
  "note": "Where “and” joins values, the source holds several entries; their conditions need not be identical. Equal entries are not always repeated.",
  "data": [
    {"smiles": "C=CCC", "note": "[1-butene]", "values": [
      {"measurement": "monoepoxide formed, R enantiomer", "setting": "[1]", "result": 6.5, "unit": "%"},
      {"measurement": "monoepoxide formed, S enantiomer", "setting": "[1]", "result": 93.5, "unit": "%"},
      {"measurement": "monoepoxide formed, R enantiomer", "setting": "[2]", "result": 8.3, "unit": "%"},
      {"measurement": "monoepoxide formed, S enantiomer", "setting": "[2]", "result": 92.7, "unit": "%"},
      {"measurement": "monoepoxide formed, R enantiomer", "setting": "[3]", "result": 0, "unit": "%"},
      {"measurement": "monoepoxide formed, R enantiomer", "setting": "[4]", "result": 9.8, "unit": "%"},
      {"measurement": "monoepoxide formed, S enantiomer", "setting": "[4]", "result": 90.2, "unit": "%"},
      {"measurement": "R isomer formed", "setting": "alkene monooxygenase", "result": 94, "unit": "%"},
      {"measurement": "monoepoxide formed, R enantiomer", "setting": "[5]", "result": "11% and 11.3%"},
      {"measurement": "monoepoxide formed, S enantiomer", "setting": "[5]", "result": "89% and 88.7%"}
    ]},
    {"smiles": "CC=CCC", "note": "[2-pentene]", "values": [
      {"measurement": "Specific activity of toluene monooxygenase, substrate degraded", "setting": "[6]", "result": "0.14 μM substrate degraded/minute/mg protein"},
      {"measurement": "induction of T4MO, relative light units", "setting": "T4MO", "result": "approximately 10^5 relative light units"},
      {"measurement": "Specific activity of toluene monooxygenase, substrate degraded", "setting": "[7]", "result": "0.18 μM substrate degraded/minute/mg protein"},
      {"measurement": "degradation compared with the wild type strains", "setting": "[8]", "result": "more rapidly and to a greater extent than the wild type strains"},
      {"measurement": "initial oxidation rate", "setting": "[9]", "result": 0.33, "unit": "mM/min/mg protein"},
      {"measurement": "Specific activity of toluene monooxygenase, substrate degraded", "setting": "[9]; following 30 minutes incubation", "result": "0.33 μM substrate degraded/minute/mg protein"},
      {"measurement": "degradation", "setting": "wild type organisms", "result": "efficiently degraded"},
      {"measurement": "degradation by the clone of T4MO", "setting": "[10]", "result": "degraded"},
      {"measurement": "Specific activity of toluene monooxygenase, substrate degraded", "setting": "Burkholderia cepacia G4", "result": "0.16 μM substrate degraded/minute/mg protein"}
    ]},
    {"smiles": "C=CCCl", "note": "[3-chloropropene]", "values": [
      {"measurement": "(S) epoxide formed", "setting": "alkene monooxygenase", "result": 80, "unit": "%"}
    ]},
    {"smiles": "C=CC(C)C", "note": "[3-methyl-butene]", "values": [
      {"measurement": "oxidation by MMO", "setting": "[11]", "result": "unable to oxidize"}
    ]},
    {"smiles": "C1=CCCCC1", "note": "[cyclohexene]", "values": [
      {"measurement": "oxidation by MMO", "setting": "[11]", "result": "unable to oxidize"}
    ]},
    {"smiles": "C=Cc1ccccc1", "note": "[styrene]", "values": [
      {"measurement": "enantiomer excess of (S)-styrene oxide formed", "setting": "styrene monooxygenase", "result": "> 99", "unit": "%"}
    ]}
  ]
}
